Columns and labels:
[1] = target: T1, Avi-KRAS G12V (1-169) GppNHp/RAF1 RBD-3xFLAG (52-151) (Homo sapiens, UniProt P01116, G12V); experiment: Raf1-KRAS G12V-GppNHP disruption HTRF assay (Biological Example 1); assay type: binding
T1 construct: Avi-KRAS G12V (1-169)
In short: (§1)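 Using HTRF, the loss of KRAS–effector RAF1 complex was quantified in 50 mM Tris pH 7.5 buffer with 100 mM NaCl and 0.1% BSA. The protein step and reagent step ran 1 h each at room temperature. Activity normalized with DMSO taken as 100%.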

[2] = target: T2, Avi-KRAS G12D (1-169) GppNHp/RAF1 RBD-3xFLAG (52-151) (Homo sapiens, UniProt P01116, G12D); experiment: Raf1-KRAS G12D-GppNHP disruption HTRF assay (Biological Example 1); assay type: binding
T2 construct: Avi-KRAS G12D (1-169)
In short: as §1

[3] = system: SW620 cells (KRAS G12V); experiment: Cell-based pERK HTRF assay in SW620 cell (Biological Example 4); settings: Homo sapiens, SW-620, SW620 (KRAS G12V) cells, pERK HTRF
In short: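 Read-out: HTRF pERK signal (excitation 320 nm, emission 615 nm) from lysates of SW620 cells after 4 h compound exposure. Dose range was 9 points, half-log steps from 1 μM, in 0.25% DMSO; antibody incubation ran 4–24 h at room temperature.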

[4] = target: T3, Avi-KRAS G12R (1-169) GppNHp/RAF1 RBD-3xFLAG (52-151) (Homo sapiens, UniProt P01116, G12R); experiment: Raf1-KRAS G12R-GppNHP disruption HTRF assay (Biological Example 1); assay type: binding
T3 construct: Avi-KRAS G12R (1-169)
In short: as §1

[5] = system: GP2d cells (KRAS G12D); experiment: Cell-based pERK HTRF assay in GP2d cell (Biological Example 2); settings: GP2d, GP2d (KRAS G12D) cells, pERK HTRF
In short: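 Phospho-ERK is measured by HTRF following a 60 min compound exposure at 0.25% DMSO, with a 9-point half-log curve topping at 1 μM or 100 nM.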

[6] = target: T4, Avi-KRAS WT (1-169) GppNHp/RAF1 RBD-3xFLAG (52-151) (Homo sapiens, UniProt P01116); experiment: Raf1-KRAS WT-GppNHP disruption HTRF assay (Biological Example 1); assay type: binding
T4 construct: Avi-KRAS WT (1-169)
In short: as §1

[7] = KRAS G12V, GppNHp-loaded, class symbols
[8] = KRAS G12D, GppNHp-loaded, class symbols
[9] = KRAS G12R, GppNHp-loaded, class symbols
[10] = KRAS WT, GppNHp-loaded, class symbols
[11] = KRAS G12V, GppNHp-loaded, Table 11
[12] = KRAS G12D, GppNHp-loaded, Table 11
[13] = KRAS G12R, GppNHp-loaded, Table 11
[14] = KRAS WT, GppNHp-loaded, Table 11

T3 sequence (P01116 1-169 isoform P01116-2 G12R): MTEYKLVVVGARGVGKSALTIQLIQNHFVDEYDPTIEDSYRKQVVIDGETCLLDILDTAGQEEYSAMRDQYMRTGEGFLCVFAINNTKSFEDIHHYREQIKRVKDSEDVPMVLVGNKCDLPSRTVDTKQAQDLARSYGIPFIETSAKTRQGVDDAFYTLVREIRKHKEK
T2 sequence (P01116 1-169 isoform P01116-2 G12D): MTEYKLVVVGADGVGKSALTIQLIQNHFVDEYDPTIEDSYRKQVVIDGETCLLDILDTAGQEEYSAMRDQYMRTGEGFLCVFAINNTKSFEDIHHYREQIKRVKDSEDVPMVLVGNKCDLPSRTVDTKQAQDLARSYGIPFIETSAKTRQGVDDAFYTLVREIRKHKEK
T1 sequence (P01116 1-169 isoform P01116-2 G12V): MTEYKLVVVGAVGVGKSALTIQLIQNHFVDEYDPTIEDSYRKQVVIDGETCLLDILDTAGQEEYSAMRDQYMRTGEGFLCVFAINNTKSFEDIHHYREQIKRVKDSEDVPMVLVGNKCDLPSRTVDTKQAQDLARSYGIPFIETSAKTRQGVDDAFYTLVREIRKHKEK
T4 sequence (P01116 1-169 isoform P01116-2): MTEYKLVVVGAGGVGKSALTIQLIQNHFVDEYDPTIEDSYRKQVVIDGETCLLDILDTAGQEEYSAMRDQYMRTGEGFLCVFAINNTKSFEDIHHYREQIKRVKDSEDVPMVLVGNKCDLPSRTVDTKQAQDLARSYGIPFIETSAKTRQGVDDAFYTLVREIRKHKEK

IC50 ([1]; KRAS G12V-GppNHp/RAF1 RBD HTRF) [nM]	IC50 ([2]; KRAS G12D-GppNHp/RAF1 RBD HTRF) [nM]	IC50 [3] [nM]	IC50 ([4]; KRAS G12R-GppNHp/RAF1 RBD HTRF) [nM]	IC50 [5] [nM]	IC50 ([6]; KRAS WT-GppNHp/RAF1 RBD HTRF) [nM]	IC50 [1, 7] [nM]	IC50 [2, 8] [nM]	IC50 ([3]; class symbols) [nM]	IC50 [4, 9] [nM]	IC50 ([5]; class symbols) [nM]	IC50 [6, 10] [nM]	IC50 [1, 11] [nM]	IC50 [2, 12] [nM]	IC50 [4, 13] [nM]	IC50 [6, 14] [nM]	SMILES
100 to 1000	100 to 1000	< 100	100 to 1000	< 100	100 to 1000											CC(=O)N1CCC[C@H](N(C)c2nc(OC[C@@]34CCCN3C[C@H](F)C4)nc3c(F)c(-c4ccc(F)c5sc(N)c(C#N)c45)c(C(F)(F)F)cc23)C1 [Compound 289]
						100 to 1000	100 to 1000	< 100	100 to 1000	< 100	100 to 1000					CCc1c(C(=O)N(C)C)nn2c1CN(c1nc(OCC34CCCN3CC(F)C4)nc3c(F)c(-c4ccc(F)c5sc(N)c(C#N)c45)c(C(F)(F)F)cc13)CC2 (stereo not drawn) [Compound 773]
1000 to 10000	1000 to 10000	100 to 1000	1000 to 10000	100 to 1000	1000 to 10000											C[C@@H]1[C@H](N(C)c2nc(OC[C@@]34CCCN3C[C@H](F)C4)nc3c(F)c(-c4ccc(F)c5sc(N)c(C#N)c45)c(Cl)cc23)CCN1C(=O)C(C)(F)F [Compound 420]
		< 100		< 100								1000 to 10000	100 to 1000	1000 to 10000	100 to 1000	CN1CCN(c2nc(OC[C@@]34CCCN3C[C@H](F)C4)nc3c(F)c(-c4ccc(F)c5sc(N)c(C#N)c45)c(C(F)(F)F)cc23)CC1=O [Compound 257]
						< 100	< 100	< 100	< 100	< 100	< 100					CCOC1CN(C(=O)N2CC[C@H](N(CC)c3nc(OC[C@@]45CCCN4C[C@H](F)C5)nc4c(F)c(-c5ccc(F)c6sc(N)c(C#N)c56)c(C(F)(F)F)cc34)C2)C1 (atropisomer, axis not shown) [Compound 758]
100 to 1000	100 to 1000	< 100	100 to 1000	< 100	100 to 1000											CC(=O)NCCN(C)c1nc(OC[C@@]23CCCN2C[C@H](F)C3)nc2c(F)c(-c3ccc(F)c4sc(N)c(C#N)c34)c(C(F)(F)F)cc12 [Compound 284]
< 100	< 100	< 100	< 100	< 100	< 100											CCN(c1nc(OC[C@@]23CCCN2C[C@H](F)C3)nc2c(F)c(-c3ccc(F)c4sc(N)c(C#N)c34)c(C(F)(F)F)cc12)[C@H]1CCN(C(=O)COC)C1 (atropisomer, axis not shown) [Compound 561]
		< 100		< 100								100 to 1000	100 to 1000	100 to 1000	100 to 1000	CC1(O)COCCN(c2nc(OC[C@@]34CCCN3C[C@H](F)C4)nc3c(F)c(-c4ccc(F)c5sc(N)c(C#N)c45)c(C(F)(F)F)cc23)C1 (stereo partly drawn) [Compound 244]
						100 to 1000	< 100	< 100	< 100	< 100	< 100					CCN(c1nc(OC[C@@]23CCCN2C[C@H](F)C3)nc2c(F)c(-c3ccc(F)c4sc(N)c(C#N)c34)c(C(F)(F)F)cc12)[C@H]1CC(=O)N(CCF)C1 (atropisomer, axis not shown) [Compound 635]
						100 to 1000	100 to 1000	< 100	100 to 1000	< 100	100 to 1000					CN(C)C(=O)c1nn2c(c1C1CC1)CN(c1nc(OCC34CCCN3CC(F)C4)nc3c(F)c(-c4ccc(F)c5sc(N)c(C#N)c45)c(C(F)(F)F)cc13)CC2 (stereo not drawn) [Compound 738]
		100 to 1000		< 100								100 to 1000	100 to 1000	100 to 1000	100 to 1000	CC(=O)N1C[C@@H](N(C)c2nc(OC[C@@]34CCCN3C[C@H](F)C4)nc3c(F)c(-c4ccc(F)c5sc(N)c(C#N)c45)c(C(F)(F)F)cc23)C[C@H]1CO [Compound 247]

Reference: patent US20260042764A1, “COMPOSITIONS AND METHODS FOR INHIBITION OF KRAS” (TheRas, Inc., priority 2022, published 2026)
